Test results as given in ChEMBL document CHEMBL3286115, “Design and Syntheses of Anti-Tuberculosis Agents Inspired by BTZ043 Using a Scaffold Simplification Strategy” (ACS Med Chem Lett, 2014).
In brackets after ≈: the same amount, converted by molar mass. Activity calls are given as the source filed them. The rule behind the calls is not given here.

Tests used:
[1] = test system: Mycobacterium tuberculosis; experiment: Antimycobacterial activity against Mycobacterium tuberculosis H37Rv in 7H12 medium by microplate alamar blue assay; format: functional
[2] = test system: Mycobacterium tuberculosis; experiment: Antimycobacterial activity against Mycobacterium tuberculosis H37Rv in GAS medium by microplate alamar blue assay; format: functional
[3] = test system: Mycobacterium tuberculosis; experiment: Antimycobacterial activity against non-replicating Mycobacterium tuberculosis H37Rv by low oxygen recovery assay; format: functional, organism-based
Vero = experiment: Cytotoxicity against African green monkey Vero cells; format: cell-based; conditions: chlorocebus sabaeus
[4] = test system: Mycobacterium tuberculosis; experiment: Antimycobacterial activity against Mycobacterium tuberculosis H37Rv; format: functional

Structure (SMILES)	MIC [1] [µM]	MIC [2] [µM]	Activity [3]	Activity (Vero)	MIC [4] [ng/mL]
C[C@H]1COC2(CCC(C(=O)Nc3cccc(C(F)(F)F)c3)CC2)O1 (stereo partly drawn)	> 50	17.9 (≈ 6.15 µg/mL)			
O=C(OCc1ccccc1)c1cc([N+](=O)[O-])cc(C(F)(F)F)c1	> 50	2.03 (≈ 0.66 µg/mL)			
C[C@H]1COC2(CCN(S(=O)(=O)c3cc(Br)cc(C(F)(F)F)c3)CC2)O1	> 10				
O=C(OCc1ccccc1)c1cc([N+](=O)[O-])cc([N+](=O)[O-])c1	13 (≈ 3.94 µg/mL)	0.27 (≈ 0.0816 µg/mL)			
C[C@H]1COC2(CCC(C(=O)Nc3cc([N+](=O)[O-])cc([N+](=O)[O-])c3)CC2)O1 (stereo partly drawn)	47.9 (≈ 17.5 µg/mL)	22.6 (≈ 8.26 µg/mL)			
C[C@H]1COC2(CCC(C(=O)Nc3cc([N+](=O)[O-])cc(C(F)(F)F)c3)CC2)O1 (stereo partly drawn)	23 (≈ 8.93 µg/mL)	18.4 (≈ 7.15 µg/mL)			
C[C@H]1COC2(CCN(S(=O)(=O)c3cc(-c4cccc[n+]4[O-])cc(C(F)(F)F)c3)CC2)O1	> 64	> 64			
C[C@H]1COC2(CCN(S(=O)(=O)c3cc([N+](=O)[O-])cc([N+](=O)[O-])c3)CC2)O1	1.53 (≈ 0.593 µg/mL)	2.05 (≈ 0.794 µg/mL)	Active	Non-toxic	
C[C@H]1COC2(CCN(c3nc(=O)c4cc(C(F)(F)F)cc([N+](=O)[O-])c4s3)CC2)O1 [BTZ-043]	< 0.02	< 0.02			1 (≈ 2.32 nM)
C[C@H]1COC2(CCN(S(=O)(=O)c3cc(-c4ccccc4)cc(C(F)(F)F)c3)CC2)O1	> 64	17.4 (≈ 7.68 µg/mL)			
C[C@H]1COC2(CCN(S(=O)(=O)c3cc([N+](=O)[O-])cc(C(F)(F)F)c3)CC2)O1	6.99 (≈ 2.87 µg/mL)	10.2 (≈ 4.19 µg/mL)	Active	Toxic	
C[C@H]1COC2(CCN(S(=O)(=O)c3cc(-c4ccccn4)cc(C(F)(F)F)c3)CC2)O1	> 50	49.3 (≈ 21.8 µg/mL)			
